Patent publication US6642247B2 (priority 1998, dated 2003)

Row | melting point | SMILES
1 | > 250 °C | Cl.OC1CCN(c2ccccc2)C12CCN(C1CCC3CCCCC3C1)CC2 (stereo not shown)
2 | 197 °C | O=C(O)/C=C/C(=O)O.O=C1CCN(c2ccccc2)C12CCN(C1CCCCCCC1)CC2
3 | 225 °C | O=C(O)/C=C/C(=O)O.O=C1CCN(c2ccccc2)C12CCN(C1C[C@H]3CCCC[C@H]3C1)CC2 (stereo partly shown)
4 | 177 °C | O=C(O)/C=C/C(=O)O.O=C1CCN(c2ccccc2)C12CCN(C1CCCCCCCCC1)CC2
5 | 185 °C | O=C(O)/C=C/C(=O)O.O=C1CCN(c2ccccc2)C12CCN(C1CCCCCCCC1)CC2
6 | 237 to 238 °C | CC(C)[C@H]1CC[C@H](N2CCC3(CC2)C(=O)CCN3c2ccccc2)CC1.Cl
7 | > 250 °C | CC(C)[C@H]1CC[C@@H](N2CCC3(CC2)[C@H](O)CCN3c2ccccc2)CC1.Cl
8 | > 250 °C | CC(C)[C@H]1CC[C@@H](N2CCC3(CC2)[C@@H](O)CCN3c2ccccc2)CC1.Cl
9 | > 250 °C | Cl.O=C1CCN(c2ccccc2)C12CCN(C1Cc3ccccc3C1)CC2
10 | 131 °C | CC(C)[C@H]1CC[C@@H](N2CCC3(CC2)ON=C(c2ccccc2)N3c2ccccc2)CC1.Cl
11 | 170 °C (dec.) | Cl.Cl.OC1CCN(c2ccccc2)C12CCN(C1CCCCCCCC1)CC2 (racemic)
12 | 170 °C (dec.) | Cl.Cl.OC1CCN(c2ccccc2)C12CCN(C1CCCCCCCCC1)CC2 (racemic)
13 | 173 °C (dec.) | Cl.Cl.OC1CCN(c2ccccc2)C12CCN(C1CCCCCCC1)CC2 (racemic)
14 | > 250 °C | CC(C)[C@H]1CC[C@@H](N2CCC3(CC2)C(O)CCN3c2ccccc2)CC1.Cl (mixture of isomers)
15 | 144 °C | O=C(O)/C=C/C(=O)O.O=C1CCN(c2ccccc2)C12CCN([C@@H]1CC[C@H]3CCCc4cccc1c43)CC2 (racemic)
16 | > 250 °C | Cl.OC1CCN(c2ccccc2)C12CCN(C1Cc3ccccc3C1)CC2 (racemic)
17 | 214 to 215 °C | COC1CCN(c2ccccc2)C12CCN([C@H]1CC[C@@H](C(C)C)CC1)CC2.Cl (mixture of isomers)
18 | > 250 °C | Cc1cccc2c1CC(N1CCC3(CC1)C(=O)CCN3c1ccccc1)C2.Cl (racemic)
19 | > 250 °C | CC(C)[C@H]1CC[C@H](N2CCC3(CC2)C(O)CCN3c2ccccc2)CC1.Cl (mixture of isomers)
20 | 250 to 251 °C (dec.) | Cl.O=C1CCN(c2ccccc2)C12CCN([C@@H]1CC[C@@H]3CCCC[C@@H]3C1)CC2 (racemic)
21 | 170 °C (dec.) | COC1CCN(c2ccccc2)C12CCN(C1CCCCCCCCC1)CC2.Cl.Cl (racemic)
22 | 196 °C (dec.) | COC1CCN(c2ccccc2)C12CCN(C1CCCCCCCC1)CC2.O=C(O)/C=C/C(=O)O (racemic)
